From ChEMBL document CHEMBL1938312, “Design and combinatorial synthesis of a novel kinase-focused library using click chemistry-based fragment assembly” (Bioorg Med Chem Lett, 2012) come the findings set out here.

Experiment [1] deals with Tyrosine-protein kinase ABL1 (Homo sapiens) (UniProt P00519). Put plainly: Inhibition of Abl at 10 uM by colorimetric analysis.
Experiment [2] has as its target Serine/threonine-protein kinase PAK 4 (Homo sapiens) (UniProt O96013). Put plainly: Inhibition of PAK4 at 10 uM by colorimetric analysis.
The target of experiment [3] is T1, Tyrosine-protein kinase JAK3 (Homo sapiens) (UniProt P52333).
T1 sequence (whole entry): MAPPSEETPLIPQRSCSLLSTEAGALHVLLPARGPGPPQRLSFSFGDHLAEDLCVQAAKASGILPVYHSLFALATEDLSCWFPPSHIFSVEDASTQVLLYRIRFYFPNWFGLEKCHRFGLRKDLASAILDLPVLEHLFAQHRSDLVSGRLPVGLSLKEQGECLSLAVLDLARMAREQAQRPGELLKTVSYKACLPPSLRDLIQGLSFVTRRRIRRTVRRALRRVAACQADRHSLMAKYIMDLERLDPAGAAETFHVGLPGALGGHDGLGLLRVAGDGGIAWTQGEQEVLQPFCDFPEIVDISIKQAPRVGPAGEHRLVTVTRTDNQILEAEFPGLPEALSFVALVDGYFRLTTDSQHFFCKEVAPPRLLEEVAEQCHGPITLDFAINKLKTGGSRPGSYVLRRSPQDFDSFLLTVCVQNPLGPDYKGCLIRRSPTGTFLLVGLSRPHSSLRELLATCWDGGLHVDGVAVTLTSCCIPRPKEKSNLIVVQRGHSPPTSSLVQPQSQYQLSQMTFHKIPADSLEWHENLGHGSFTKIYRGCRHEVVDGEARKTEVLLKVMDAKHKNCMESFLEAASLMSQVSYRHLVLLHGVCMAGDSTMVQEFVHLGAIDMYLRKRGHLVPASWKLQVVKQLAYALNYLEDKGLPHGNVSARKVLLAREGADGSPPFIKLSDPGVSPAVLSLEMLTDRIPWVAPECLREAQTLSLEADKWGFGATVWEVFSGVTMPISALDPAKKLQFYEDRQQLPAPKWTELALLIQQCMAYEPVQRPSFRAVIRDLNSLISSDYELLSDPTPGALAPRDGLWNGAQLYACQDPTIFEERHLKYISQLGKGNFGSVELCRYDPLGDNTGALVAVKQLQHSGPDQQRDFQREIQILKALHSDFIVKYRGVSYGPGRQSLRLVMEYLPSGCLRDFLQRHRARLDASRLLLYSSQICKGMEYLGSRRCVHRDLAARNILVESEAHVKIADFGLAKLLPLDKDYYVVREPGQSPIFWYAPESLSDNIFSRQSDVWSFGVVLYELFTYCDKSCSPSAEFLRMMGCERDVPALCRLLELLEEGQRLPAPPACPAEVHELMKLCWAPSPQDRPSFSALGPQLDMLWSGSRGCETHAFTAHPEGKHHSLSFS
Nature of the experiment: Inhibition of JAK3 at 10 uM by colorimetric analysis.

The target of experiment [4] is 5'-AMP-activated protein kinase subunit gamma-1 (Homo sapiens) (UniProt P54619). Put plainly: Inhibition of AMPKgamma1 at 10 uM by colorimetric analysis.
Chain of 5'-AMP-activated protein kinase subunit gamma-1 (Homo sapiens) (P54619 whole entry): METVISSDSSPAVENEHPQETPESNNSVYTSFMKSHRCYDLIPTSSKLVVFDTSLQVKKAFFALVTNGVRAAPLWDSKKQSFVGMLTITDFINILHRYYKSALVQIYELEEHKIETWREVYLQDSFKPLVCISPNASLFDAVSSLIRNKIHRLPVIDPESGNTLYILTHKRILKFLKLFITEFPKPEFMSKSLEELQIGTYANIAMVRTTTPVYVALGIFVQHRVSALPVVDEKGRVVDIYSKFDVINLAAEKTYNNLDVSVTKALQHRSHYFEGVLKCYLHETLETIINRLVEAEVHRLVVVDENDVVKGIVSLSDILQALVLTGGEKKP
Experiment [5] deals with T2, Receptor-type tyrosine-protein kinase FLT3 (Homo sapiens, UniProt P36888).
T2 sequence (P36888 whole entry): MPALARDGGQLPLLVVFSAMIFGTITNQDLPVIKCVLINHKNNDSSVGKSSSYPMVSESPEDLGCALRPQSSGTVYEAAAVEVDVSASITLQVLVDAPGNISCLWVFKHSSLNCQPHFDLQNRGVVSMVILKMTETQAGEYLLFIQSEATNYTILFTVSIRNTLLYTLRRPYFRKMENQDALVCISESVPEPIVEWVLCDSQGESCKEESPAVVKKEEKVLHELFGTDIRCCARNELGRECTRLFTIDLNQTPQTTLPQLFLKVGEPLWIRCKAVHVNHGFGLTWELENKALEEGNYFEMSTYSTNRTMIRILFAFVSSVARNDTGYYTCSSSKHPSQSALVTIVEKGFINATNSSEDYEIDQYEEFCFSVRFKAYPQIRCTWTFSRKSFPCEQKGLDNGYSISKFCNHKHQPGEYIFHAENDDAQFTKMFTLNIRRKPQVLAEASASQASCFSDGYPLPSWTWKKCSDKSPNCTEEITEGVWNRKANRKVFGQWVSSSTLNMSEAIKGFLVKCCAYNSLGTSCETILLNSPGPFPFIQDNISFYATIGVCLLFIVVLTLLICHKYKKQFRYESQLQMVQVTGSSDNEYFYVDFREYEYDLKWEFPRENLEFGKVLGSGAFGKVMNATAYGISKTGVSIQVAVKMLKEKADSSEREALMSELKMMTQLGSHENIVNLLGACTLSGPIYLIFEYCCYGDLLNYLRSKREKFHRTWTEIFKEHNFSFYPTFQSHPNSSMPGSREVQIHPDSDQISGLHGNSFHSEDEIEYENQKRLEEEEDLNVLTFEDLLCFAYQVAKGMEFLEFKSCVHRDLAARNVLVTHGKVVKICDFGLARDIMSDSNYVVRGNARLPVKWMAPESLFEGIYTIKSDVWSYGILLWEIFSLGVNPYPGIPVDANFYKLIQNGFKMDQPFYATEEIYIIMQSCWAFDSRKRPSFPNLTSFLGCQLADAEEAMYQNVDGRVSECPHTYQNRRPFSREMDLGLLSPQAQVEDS
Put plainly: Inhibition of FLT3 by colorimetric analysis.

The target in experiment [6] is T3, Serine/threonine-protein kinase 4 (Homo sapiens) (UniProt Q13043).
T3 sequence (whole entry): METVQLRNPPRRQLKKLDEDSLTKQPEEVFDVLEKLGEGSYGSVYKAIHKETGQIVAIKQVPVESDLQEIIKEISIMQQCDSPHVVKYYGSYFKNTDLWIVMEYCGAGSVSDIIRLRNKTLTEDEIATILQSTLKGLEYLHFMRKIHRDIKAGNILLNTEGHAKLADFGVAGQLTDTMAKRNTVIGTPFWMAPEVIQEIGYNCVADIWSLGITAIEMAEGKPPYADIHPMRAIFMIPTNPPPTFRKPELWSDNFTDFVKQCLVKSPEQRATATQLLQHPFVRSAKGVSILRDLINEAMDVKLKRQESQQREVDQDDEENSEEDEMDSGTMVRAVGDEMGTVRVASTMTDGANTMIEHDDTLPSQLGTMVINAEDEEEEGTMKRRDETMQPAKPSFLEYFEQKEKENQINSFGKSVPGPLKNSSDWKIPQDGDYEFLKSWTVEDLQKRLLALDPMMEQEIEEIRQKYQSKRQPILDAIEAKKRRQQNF
Put plainly: Inhibition of MST1 at 10 uM by colorimetric analysis.

Experiment [7] has as its target Platelet-derived growth factor receptor alpha (Homo sapiens) (UniProt P16234). Nature of the experiment: Inhibition of PDGFRalpha at 10 uM by colorimetric analysis.

Calls of active or inactive are those of the source. No cut-off for these calls is given here.

Chain of Serine/threonine-protein kinase PAK 4 (Homo sapiens) (O96013 whole entry, looked up): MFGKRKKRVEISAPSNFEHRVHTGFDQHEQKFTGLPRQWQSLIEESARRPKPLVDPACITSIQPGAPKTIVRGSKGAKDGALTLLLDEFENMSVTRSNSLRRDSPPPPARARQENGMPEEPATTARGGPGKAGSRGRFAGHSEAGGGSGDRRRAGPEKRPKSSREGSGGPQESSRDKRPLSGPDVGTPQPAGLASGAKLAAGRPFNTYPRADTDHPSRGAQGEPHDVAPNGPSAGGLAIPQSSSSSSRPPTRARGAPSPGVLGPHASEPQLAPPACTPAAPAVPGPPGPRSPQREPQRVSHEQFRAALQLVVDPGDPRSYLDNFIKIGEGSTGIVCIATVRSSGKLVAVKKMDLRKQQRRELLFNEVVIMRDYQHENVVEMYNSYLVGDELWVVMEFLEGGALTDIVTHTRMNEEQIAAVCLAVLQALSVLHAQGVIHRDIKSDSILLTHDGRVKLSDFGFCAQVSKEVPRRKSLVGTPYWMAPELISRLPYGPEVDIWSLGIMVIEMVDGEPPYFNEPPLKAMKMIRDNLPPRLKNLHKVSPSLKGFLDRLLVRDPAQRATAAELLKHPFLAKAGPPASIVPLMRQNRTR
Chain of Platelet-derived growth factor receptor alpha (Homo sapiens) (P16234 whole entry): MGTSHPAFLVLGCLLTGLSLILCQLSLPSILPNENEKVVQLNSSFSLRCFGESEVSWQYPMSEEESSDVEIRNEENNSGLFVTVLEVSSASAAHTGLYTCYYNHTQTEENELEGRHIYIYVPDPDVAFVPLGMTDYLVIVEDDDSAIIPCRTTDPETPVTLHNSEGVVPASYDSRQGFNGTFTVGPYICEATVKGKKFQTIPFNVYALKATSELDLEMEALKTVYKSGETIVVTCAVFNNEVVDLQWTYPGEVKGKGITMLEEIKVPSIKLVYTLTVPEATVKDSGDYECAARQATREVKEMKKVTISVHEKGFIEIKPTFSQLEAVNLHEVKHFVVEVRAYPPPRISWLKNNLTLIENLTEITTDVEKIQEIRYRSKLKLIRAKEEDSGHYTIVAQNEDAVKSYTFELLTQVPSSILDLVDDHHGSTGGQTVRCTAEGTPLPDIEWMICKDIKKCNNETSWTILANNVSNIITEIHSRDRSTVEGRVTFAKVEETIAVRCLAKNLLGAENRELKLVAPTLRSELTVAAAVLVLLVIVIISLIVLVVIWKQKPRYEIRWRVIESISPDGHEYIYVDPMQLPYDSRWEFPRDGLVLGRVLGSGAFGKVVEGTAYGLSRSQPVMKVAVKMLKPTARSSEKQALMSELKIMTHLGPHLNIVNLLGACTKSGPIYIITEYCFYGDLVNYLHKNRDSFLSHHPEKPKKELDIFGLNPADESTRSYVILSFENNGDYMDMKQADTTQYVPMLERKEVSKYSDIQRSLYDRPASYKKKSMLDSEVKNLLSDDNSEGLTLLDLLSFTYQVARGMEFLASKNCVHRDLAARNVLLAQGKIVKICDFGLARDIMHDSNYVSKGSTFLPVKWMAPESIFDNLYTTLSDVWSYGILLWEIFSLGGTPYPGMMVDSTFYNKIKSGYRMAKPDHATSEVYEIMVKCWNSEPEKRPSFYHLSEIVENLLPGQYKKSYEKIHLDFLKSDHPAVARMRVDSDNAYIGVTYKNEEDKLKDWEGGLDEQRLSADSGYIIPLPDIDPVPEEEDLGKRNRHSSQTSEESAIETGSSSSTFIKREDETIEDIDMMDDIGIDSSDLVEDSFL
Chain of Tyrosine-protein kinase ABL1 (Homo sapiens) (P00519 whole entry): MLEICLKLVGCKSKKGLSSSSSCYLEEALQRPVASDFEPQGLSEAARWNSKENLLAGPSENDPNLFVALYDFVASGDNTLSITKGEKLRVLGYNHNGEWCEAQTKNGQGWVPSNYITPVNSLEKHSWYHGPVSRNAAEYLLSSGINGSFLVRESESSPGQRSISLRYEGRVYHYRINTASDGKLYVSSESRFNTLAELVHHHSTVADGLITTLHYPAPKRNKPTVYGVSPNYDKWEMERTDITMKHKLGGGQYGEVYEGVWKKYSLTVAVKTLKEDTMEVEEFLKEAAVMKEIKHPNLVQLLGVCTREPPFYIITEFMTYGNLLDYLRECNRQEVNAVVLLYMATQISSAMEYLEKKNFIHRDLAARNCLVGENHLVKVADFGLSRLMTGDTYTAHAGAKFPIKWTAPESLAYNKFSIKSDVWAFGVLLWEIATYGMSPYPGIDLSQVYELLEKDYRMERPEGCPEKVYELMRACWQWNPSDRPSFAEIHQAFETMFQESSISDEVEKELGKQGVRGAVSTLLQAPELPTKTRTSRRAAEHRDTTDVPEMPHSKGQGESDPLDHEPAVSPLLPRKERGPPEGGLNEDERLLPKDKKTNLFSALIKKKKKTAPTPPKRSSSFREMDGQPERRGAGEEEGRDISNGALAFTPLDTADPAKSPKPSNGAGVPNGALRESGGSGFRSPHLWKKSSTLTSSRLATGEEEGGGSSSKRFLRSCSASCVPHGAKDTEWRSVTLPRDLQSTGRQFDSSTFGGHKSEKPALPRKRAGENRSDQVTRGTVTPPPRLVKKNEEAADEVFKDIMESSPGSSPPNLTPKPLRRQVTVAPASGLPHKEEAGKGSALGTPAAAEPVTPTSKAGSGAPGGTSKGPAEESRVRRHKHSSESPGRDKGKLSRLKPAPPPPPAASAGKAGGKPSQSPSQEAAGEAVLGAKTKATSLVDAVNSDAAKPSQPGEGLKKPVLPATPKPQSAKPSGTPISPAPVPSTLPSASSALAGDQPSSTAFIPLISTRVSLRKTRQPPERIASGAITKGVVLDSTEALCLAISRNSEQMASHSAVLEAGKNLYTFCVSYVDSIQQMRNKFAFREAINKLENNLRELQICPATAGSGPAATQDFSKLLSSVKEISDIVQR

The IC50 is the concentration that inhibits the measured activity by half. Lower therefore signals inhibition by little substance. On to `Clc1ccc(-n2nncc2-c2ccncc2)cc1`, for which the inhibition entry in experiment [1], in experiment [3] and in experiment [7] was “inactive” each time. Moreover, the inhibition result in experiment [2], in experiment [4] and in experiment [6] was “Active” each time. The compound further registered an IC50 in experiment [5] of 1.7 µM.

As for `Clc1ccc(-n2cc(-c3ccncc3)nn2)cc1`, the inhibition result in experiment [1], in experiment [3] and in experiment [7] was “inactive” in each case. For the same compound, the inhibition result in experiment [2], in experiment [4] and in experiment [6] was “Active” in each case. The compound further had an IC50 in experiment [5] of 5.8 µM.

On to `Clc1cccc(-n2cc(-c3ccncc3)nn2)c1`, for which the inhibition entry in experiment [1], in experiment [3] and in experiment [7] was “inactive” each time. Also, the inhibition entry in experiment [2], in experiment [4] and in experiment [6] was “Active” throughout. Further, the IC50 in experiment [5] stood at 10.5 µM.

As for `Clc1cccc(-n2nncc2-c2ccncc2)c1`, the inhibition entry in experiment [1], in experiment [3] and in experiment [7] was “inactive” each time. Further, the inhibition entry in experiment [2], in experiment [4] and in experiment [6] was “Active” throughout. In experiment [5], this compound returned an IC50 of 4.4 µM.
